Read-outs that look alike come from different tables or passages of the source. Blank lines part the entries; values can stand above or below the compound they belong to.
Legend:
PSMA [1] = molecular target: T1, PSMA (Homo sapiens, UniProt Q04609); assay: Competitive binding assay (Ki) on PSMA-positive C4-2 cells; design: host or cells: C4-2 cells; details: non-labeled ligands vs 0.75 nM 68Ga-PSMA-HBED-CC dimer
Procedure: In vitro and in vivo experiments were performed using the PSMA-positive C4-2 cell line, a subline of the LNCaP (lymph node carcinoma of the prostate) cell line (CRL-3314; American Type Culture Collection). C4-2 cells were cultivated in RPMI 1640 (PAN Biotech) medium supplemented with 10% fetal calf serum and stable glutamine (PAN Biotech). Cells were grown at 37° C. and incubated with humidified air equilibrated with 5% CO2.
A MultiScreenHTS-DV filter plate was incubated at room temperature with 100 μl PBS containing 1% BSA per well for 30 min. After removal of the PBS/BSA solution 1×10^5 C4-2 cells were added Opti-MEM to each well. […] All non-labeled compounds were dissolved in Opti-MEM at a volume of 300 μl with the following concentrations: 0, 0.5, 1, 2.5, 5, 10, 25, 50, 100, 500, 1000 and 5000 nM. Subsequently, 3 μl of the radiolabeled compound was added. 50 μl of this mixture was taken to obtain a 0.75 nM concentration of the radiolabeled ligand. After 45 min incubation at 37° C., the cells were washed twice with PBS on a multiscreen vacuum manifold (Millipore, Billerica, MA) and the cell-bound radioactivity was measured with a gamma counter (Packard Cobra II, GMI, Minnesota, USA). The inhibitory potency was determined using ^68Ga-labeled PSMA-HBED-CC dimer (i.e. PSMA-11) as reference. The Ki was calculated using a nonlinear regression algorithm (Graph Pad Prism 5.01 software). The experiments were performed in quadruplicate.

C4-2 tumor = assay: Planar scintigraphic imaging of 203Pb-labeled compounds; format: in vivo, BALB/c nu/nu mice; details: tail vein injection
Procedure: (§1) The in vivo experiments were carried out in accordance with the laws of the German Federal Republic. For PET imaging and biodistribution studies, male nude mice (Balb/c nu/nu mice) (19-23 g) were obtained from Charles River at 4-5 weeks of age and kept under specific-pathogen-free condition for 1 week prior to the study. The mice were housed with a 12-hour/12-hour light/dark cycle and had free access to water and food. The mice were anesthetized with 2% sevoflurane and inoculated subcutaneously on the right trunk with 5×10^7 C4-2 cells in 50% Matrigel in Opti-MEM I (1×) medium. Organ distribution studies were performed, when the size of the tumor was approximately 1 cm^3.
For small-animal imaging the mice were anesthetized with 2% sevoflurane. 0.1 nmol (1.0 MBq) of the ^203Pb-ligand was injected into the tail vein. Serial planar scans were performed using a Gamma Imager SCT (Biospace Lab, Paris, France) with a parallel collimator (35 mm/1.8 mm/0.2 mm) after 10 min, 1 h, 4 h, 24 h. and 72 h. Based on the imaging results, compound CA012 was chosen for biodistribution studies. Experiments were performed in triplicate.

[2] = Serum stability of 68Ga, 177Lu and 64Cu labeled compounds (iTLC, HPLC, pellet activity); format: in vitro ADME; details: 177Lu-labeled, human serum, 24 h
Procedure: After radiolabeling of the compounds the serum stability was determined by iTLC and HPLC analysis. 50 μL (20 MBq) of the labeled ligands was added to 200 μL of human serum (H4522; Sigma-Aldrich, Germany) and incubated at 37° C. for different time-points (0, 2 h, 24 h, 48 h and 72 h). 0.5×5 cm strips of iTLC-SG-glass microfiber chromatography paper (Folsom, California USA) were used. 0.5 μL of the radiolabeled compound in serum was applied to each strip at 1 cm from the bottom (origin) and the solvent (sodium citrate buffer (0.5 M, pH=5.0) in case of ^177Lu ligands, (1% Na-EDTA, pH=4) in case of Cu labeled ligands) front was allowed to rise to 5 cm from the bottom. Finally, each strip was cut in 8 pieces; each piece was measured in a gamma-counter. For HPLC analysis an equal volume of ACN was added to the samples to precipitate the serum proteins. Subsequently, the samples were centrifuged for 10 min at 13,000 rpm and the pellet and supernatant were separated and the relative activity was measured. The results are expressed as percent. In addition, an aliquot of the supernatant was analyzed by radio-HPLC (0-100% ACN in 5 min, Monolith column), with a flow rate of 2 mL/min.

[3] = In vivo fate and metabolization of 64Cu-chloride and 64Cu-CA003 (PET, radio-HPLC of tissue extracts); design: species or system Swiss mice; details: 10 min p.i., mouse without tumor
Procedure: The metabolization in vivo was studied by radio-HPLC analysis. Female Swiss mice (n=3) without tumor were injected via the tail vein with ^64Cu-chloride (10 MBq in approximately 100 μL of 0.9% saline) or ^64Cu-CA003 (9 MBq, 0.30 nmol in approximately 100 μL of 0.9% saline). PET imaging was performed 10 min post injection and subsequently blood, the liver and the kidneys were harvested. The tissues were rinsed with precooled saline, blotted dry and treated with 2 mL of 0.1 M NH4OAc/EtOH (35:65). The tissues were homogenized using an Ultra-Turrax T8 (IKA Labortechnik, Germany). The samples were centrifuged for 10 min at 13,000 rpm (4° C.). Subsequently, the pellet and supernatant were separated and the relative activity was measured. The results are expressed as percent. Additionally, an aliquot of supernatant was prepared for HPLC measurement by precipitation of the proteins with ACN as described above. The sample was analyzed by radio-HPLC (0-100% ACN in 5 min, Monolith column), with a flow rate of 2 mL/min. Fractions were collected every ten seconds over the whole course of the chromatography and the relative activity of the samples was measured in a gamma-counter to reconstruct a chromatogram.

C4-2 tumor xenograft = assay: Small-animal PET in C4-2 tumor bearing mice; format: in vivo, BALB/c nu/nu mouse
Procedure: as §1
For small-animal PET imaging with various ^64Cu-labeled PSMA ligands, 0.2 nmol, 10 MBq of approximately 100 μL in 0.9% saline the radiolabeled compound were injected into a C4-2 tumor bearing mouse. The dynamic PET was recorded in a small animal PET scanner (Siemens Inveon D-PET, Malvern, PA USA). The SUV values were obtained from conventional (non-dynamic) PET images. The formula for the SUV was:
The volumes-of-interest (VOIs) were obtained by manual delineation of the appropriate whole tissue (heart, kidneys, bladder, tumor—with an approximate volume of 100-500 μl)—or parts of the tissue liver and muscle. […]

PSMA [4] = molecular target: T1, PSMA; design: PET/CT imaging in first patients was performed; from tissue; host or cells: tissues and tumour lesions of prostate cancer patients (in vivo PET/CT); details: values from Afshar-Oromieh et al., 2015, cited from earlier work
[5] = In vivo metabolite analysis of 177Lu-labeled ligands (radio-HPLC of tissue extracts); design: species or system BALB/c nude mouse; details: 1 h p.i., 10 MBq, 0.2 nmol
Procedure: FIG. 24. In vivo metabolite analysis of ^177Lu-CA028 in comparison with ^177Lu-PSMA-617 (10 MBq, 0.2 nmol in approximately 100 μl of 0.9% saline) in a BALB/c nude mouse (tumor) at 1 h p.i. […] This proves the integrity of the complex within the main distribution period.

T1 sequence (Q04609 whole entry): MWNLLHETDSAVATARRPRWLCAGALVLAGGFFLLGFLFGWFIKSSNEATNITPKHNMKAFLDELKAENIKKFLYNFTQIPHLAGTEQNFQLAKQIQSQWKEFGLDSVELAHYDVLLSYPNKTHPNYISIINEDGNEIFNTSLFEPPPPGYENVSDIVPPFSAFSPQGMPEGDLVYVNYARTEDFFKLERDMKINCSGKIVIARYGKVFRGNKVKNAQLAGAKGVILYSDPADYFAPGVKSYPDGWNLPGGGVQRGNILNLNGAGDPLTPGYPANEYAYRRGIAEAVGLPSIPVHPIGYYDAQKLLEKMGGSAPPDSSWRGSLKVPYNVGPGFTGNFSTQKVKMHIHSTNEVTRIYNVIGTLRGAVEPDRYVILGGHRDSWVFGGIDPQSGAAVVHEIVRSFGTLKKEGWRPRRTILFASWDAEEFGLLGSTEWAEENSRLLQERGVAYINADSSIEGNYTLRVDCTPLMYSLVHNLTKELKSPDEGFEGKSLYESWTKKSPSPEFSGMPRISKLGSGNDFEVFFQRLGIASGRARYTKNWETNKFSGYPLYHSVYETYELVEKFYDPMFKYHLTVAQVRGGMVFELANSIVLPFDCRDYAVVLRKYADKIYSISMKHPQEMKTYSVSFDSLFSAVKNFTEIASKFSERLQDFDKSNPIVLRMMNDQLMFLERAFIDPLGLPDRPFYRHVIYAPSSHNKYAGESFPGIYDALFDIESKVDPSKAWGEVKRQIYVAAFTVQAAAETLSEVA

SMILES: [64Cu+2].[Cl-].[Cl-] [^64Cu-chloride]
blood circulation, maximum intensity projection PET [3]: 1.3
kidney uptake, maximum intensity projection PET [3]: 3.4
liver uptake, maximum intensity projection PET [3]: 2.7
tumor-to-liver ratio (C4-2 tumor xenograft; 2 h): 0.38
tracer accumulation in PET images (in words) (C4-2 tumor xenograft; C4-2 tumour bearing mice): very high liver accumulation

SMILES: O=C([O-])CN1CCN(CC(=O)[O-])CCN(CC(=O)NCC2CCC(C(=O)N[C@@H](Cc3ccc4ccccc4c3)C(=O)NCCCC[C@H](NC(=O)N[C@@H](CCC(=O)O)C(=O)O)C(=O)O)CC2)CCN(CC(=O)[O-])CC1.[68Ga+3] (some centres unmarked) [^68Ga-PSMA-617]
SUVmean Blood pool, mediastinal (PSMA [4]; 1 h): 2.5
SUVmean Bone met (PSMA [4]; 1 h): 9.4
SUVmean Colon (PSMA [4]; 1 h): 3.5
SUVmean Gluteal muscle (PSMA [4]; 1 h): 0.7
SUVmean Kidneys (PSMA [4]; 1 h): 15.6
SUVmean Lacrimal gland (PSMA [4]; 1 h): 4.9
SUVmean Liver (PSMA [4]; 1 h): 3.3
SUVmean Lymph node (PSMA [4]; 1 h): 7.1
SUVmean Nasal mucosa (PSMA [4]; 1 h): 2.9
SUVmean Parotid gland (PSMA [4]; 1 h): 10.4
SUVmean Prox. Small intestine (PSMA [4]; 1 h): 4.7
SUVmean Spleen (PSMA [4]; 1 h): 4.3
SUVmean Sublingual gland (PSMA [4]; 1 h): 4.6
SUVmean Submandibular gland (PSMA [4]; 1 h): 10
SUVmean Blood pool, mediastinal (PSMA [4]; 3 h): 2.4
SUVmean Bone met (PSMA [4]; 3 h): 6.3
SUVmean Colon (PSMA [4]; 3 h): 4.0
SUVmean Gluteal muscle (PSMA [4]; 3 h): 0.7
SUVmean Kidneys (PSMA [4]; 3 h): 17.0
SUVmean Lacrimal gland (PSMA [4]; 3 h): 5.9
SUVmean Liver (PSMA [4]; 3 h): 2.7
SUVmean Lymph node (PSMA [4]; 3 h): 13.5
SUVmean Nasal mucosa (PSMA [4]; 3 h): 3.4
SUVmean Parotid gland (PSMA [4]; 3 h): 13.1
SUVmean Prox. Small intestine (PSMA [4]; 3 h): 5.5
SUVmean Spleen (PSMA [4]; 3 h): 3.5
SUVmean Sublingual gland (PSMA [4]; 3 h): 4.0
SUVmean Submandibular gland (PSMA [4]; 3 h): 12.4

SMILES: O=C([O-])CN1CCN(CC(=O)[O-])CCN(CC(=O)NCC2CCC(C(=O)N[C@@H](Cc3ccc4ccccc4c3)C(=O)NCCCC[C@H](NC(=O)N[C@@H](CCC(=O)O)C(=O)O)C(=O)O)CC2)CCN(CC(=O)[O-])CC1.[177Lu+3] (some centres unmarked) [^177Lu-PSMA-617]
integrity of tracer in extracts from kidney, blood, liver and tumor (radio-HPLC) [5]: activity elutes at the retention time of the intact tracer

Continued, in another order:

Ki / binding affinity to PSMA (in words) (PSMA [1]): particularly high affinity
SMILES: O=C(O)CCC(NC(=O)NC(CCCCNC(=O)C(Cc1ccc2ccccc2c1)NC(=O)C1CCC(CNC(=O)c2ccc(CN3CCCNCCNCCCNCC3)cc2)CC1)C(=O)O)C(=O)O (centres unmarked) [CA003]

Ki / binding affinity to PSMA (in words) (PSMA [1]): highest affinity
SMILES: NC(=O)CN1CCN(CC(N)=O)CCN(CC(N)=O)C(Cc2ccc(NC(=S)NCC3CCC(C(=O)NC(Cc4ccc5ccccc5c4)C(=O)NCCCCC(NC(=O)NC(CCC(=O)O)C(=O)O)C(=O)O)CC3)cc2)CN(CC(N)=O)CC1 (centres unmarked) [CA009]
tumor uptake / retention in planar scintigraphy (in words) (C4-2 tumor): high uptake of the tracer in the tumor tissue

Ki / binding affinity to PSMA (in words) (PSMA [1]): highest affinity
SMILES: NC(=O)CN1CCN(CC(N)=O)CCN(CC(=O)NCC2CCC(C(=O)NC(Cc3ccc4ccccc4c3)C(=O)NCCCCC(NC(=O)NC(CCC(=O)O)C(=O)O)C(=O)O)CC2)CCN(CC(N)=O)CC1 (centres unmarked) [CA012]
tumor uptake / retention in planar scintigraphy (in words) (C4-2 tumor): high uptake of the tracer in the tumor tissue

free 177Lu [2]: no free activity
SMILES: O=C(O)CCC(NC(=O)NC(CCCCNC(=O)C(Cc1ccc2ccccc2c1)NC(=O)C1CCC(CNC(=S)Nc2ccc(CC3CN(CC(=O)O)CCN(CC(=O)O)CCN(CC(=O)O)CCN3CC(=O)O)cc2)CC1)C(=O)O)C(=O)O (centres unmarked) [CA029]

free 177Lu [2]: no free activity
SMILES: O=C(O)CC[C@H](NC(=O)N[C@@H](CCCCNC(=O)[C@H](Cc1ccc2ccccc2c1)NC(=O)[C@H]1CC[C@H](CNC(=O)CN2CCN(CC(=O)O)CCN(CC(=O)O)CCN(CC(=O)O)CC2)CC1)C(=O)O)C(=O)O [PSMA-617]

From US20250057993A1, “LABELED INHIBITORS OF PROSTATE SPECIFIC MEMBRANE ANTIGEN (PSMA), THEIR USE AS IMAGING AGENTS AND PHARMACEUTICAL AGENTS FOR THE TREATMENT OF PSMA-EXPRESSING CANCERS” (Universität Heidelberg, priority 2018, published 2025)
